Data from US4745124A, “Orally effective anti-hypertensive agents” (priority 1983, dated 1988).
Several values for one entry are separate records, joined by “and”; a condition that tells them apart may be missing. Identical values can stand only once.

Columns and labels:
[1] = test system: serum ACE; experiment: oral effectiveness: intrinsic serum ACE activity in unanesthetized rabbits; assay type: in vivo; conditions: oral 1 mg, about 1 kg rabbit
Protocol: A. ACE activity assay. For most experiments described herein, the enzyme ACE was assayed in 0.05M Hepes buffer, pH 8.0 containing 0.1M NaCl and 0.75M Na2 SO4. The substrate employed was Benzoyl-GlyHisLeu at a final concentration of 1×10^-4 M, together with about 130,000 cpm of [^3 H]-Benzoyl GlyHisLeu (25 Ci/mmole). Enzyme was diluted in the above buffer such that 40 μl buffered enzyme was capable of hydrolyzing 13% of substrate in a 15-minute incubation at 37° C. To initiate the assay, 40 μl of enzyme and 10 μl of water or inhibitor dissooved in water were preincubated for five minutes at 37° C. Substrate, 50 μl, was then added to initiate reaction and the solution was incubated for 15 minutes at 37° C. To terminate the reaction, 1 ml of 0.1M HCl was added, following which 1 ml of ethyl acetate was added. The mixture was agitated on a rotary mixer and centrifuged briefly to separate the phases.
Young, unanesthetized rabbits, fasted overnight, weighing about 1 kg, were given compound (I). The compound was dissolved in water at alkaline pH, 1 mg of (I) in 3 ml water containing 50 μl 1N NaHCO3. Blood samples, 0.5 ml, were collected at timed intervals from a marginal ear vein. Sera obtained after clot formation and centrifugation were assayed for intrinsic ACE activity, using 1 μl in the assay of Example 216A.

[2] = biological target: T1, angiotensin converting enzyme (human urinary ACE) (Homo sapiens, UniProt P12821); experiment: ACE activity assay, I50 (Example 216A); assay type: biochemical; conditions: human urinary ACE; Benzoyl-GlyHisLeu 1×10^-4 M; Hepes pH 8.0; 37° C; in vitro; read-out: I50
T1 construct: ACE purified from human urine; from tissue; host or cells: human urine (ultrafiltration and Sephacryl S-200, first eluting peak; prepared as in Ryan et al., Tissue and Cell 10, 555 (1978))
T1 sequence (P12821 30-1232 limits assumed): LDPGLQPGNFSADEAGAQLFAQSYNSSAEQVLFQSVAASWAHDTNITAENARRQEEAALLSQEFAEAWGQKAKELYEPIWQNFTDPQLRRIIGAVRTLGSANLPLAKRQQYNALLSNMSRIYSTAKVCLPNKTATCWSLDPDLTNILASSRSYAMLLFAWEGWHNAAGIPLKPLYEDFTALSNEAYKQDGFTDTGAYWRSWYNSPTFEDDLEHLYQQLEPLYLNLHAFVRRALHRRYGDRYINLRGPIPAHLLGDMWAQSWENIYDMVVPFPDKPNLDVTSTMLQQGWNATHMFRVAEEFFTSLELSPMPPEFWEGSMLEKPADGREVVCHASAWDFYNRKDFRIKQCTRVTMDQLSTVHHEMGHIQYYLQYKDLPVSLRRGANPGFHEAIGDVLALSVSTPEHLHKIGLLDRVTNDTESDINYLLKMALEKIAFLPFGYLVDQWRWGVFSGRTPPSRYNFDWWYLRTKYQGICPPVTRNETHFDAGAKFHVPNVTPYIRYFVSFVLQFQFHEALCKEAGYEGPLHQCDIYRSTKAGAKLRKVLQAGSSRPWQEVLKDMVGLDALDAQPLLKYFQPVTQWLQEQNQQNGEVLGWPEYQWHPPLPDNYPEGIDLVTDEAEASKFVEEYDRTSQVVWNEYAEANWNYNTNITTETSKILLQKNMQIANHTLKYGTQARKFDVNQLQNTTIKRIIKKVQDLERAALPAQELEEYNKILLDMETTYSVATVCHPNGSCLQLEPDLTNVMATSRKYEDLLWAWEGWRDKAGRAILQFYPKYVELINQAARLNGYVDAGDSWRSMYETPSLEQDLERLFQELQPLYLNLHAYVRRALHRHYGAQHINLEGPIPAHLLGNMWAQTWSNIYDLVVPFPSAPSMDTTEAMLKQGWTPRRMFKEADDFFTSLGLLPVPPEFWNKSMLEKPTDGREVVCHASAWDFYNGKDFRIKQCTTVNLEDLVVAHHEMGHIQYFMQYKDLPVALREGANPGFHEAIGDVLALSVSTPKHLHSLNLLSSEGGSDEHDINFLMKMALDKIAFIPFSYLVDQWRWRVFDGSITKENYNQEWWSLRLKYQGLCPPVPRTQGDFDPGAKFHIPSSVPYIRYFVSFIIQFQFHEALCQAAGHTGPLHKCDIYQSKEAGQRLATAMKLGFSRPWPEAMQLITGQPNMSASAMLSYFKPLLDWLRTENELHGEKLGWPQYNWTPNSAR

[3] = resistance of thioester compounds to alkaline hydrolysis; assay type: physicochemical
Text: Therefore the observed inhibitory effects cannot be accounted for by postulating spontaneous hydrolysis of the thioester bond to regenerate the free sulfhydryl group.

C[C@H](CSC(=O)C(Cc1ccccc1)NC(=O)c1ccccc1)C(=O)N1CCC[C@H]1C(=O)O (stereo partly drawn) [Compound (I), 2-benzoylphenylalanylthio-2-D-methylpropanoyl-L-proline]
Serum ACE activity ([1]; 0.167 h, Rabbit 1): 7% of Control
Serum ACE activity ([1]; 0.167 h, Rabbit 2): 11% of Control
Serum ACE activity ([1]; 0.33 h, Rabbit 1): 8% of Control
Serum ACE activity ([1]; 0.33 h, Rabbit 2): 9% of Control
Serum ACE activity ([1]; 0.5 h, Rabbit 1): 7% of Control
Serum ACE activity ([1]; 0.5 h, Rabbit 2): 8% of Control
Serum ACE activity ([1]; 1.0 h, Rabbit 1): 20% of Control
Serum ACE activity ([1]; 1.0 h, Rabbit 2): 44% of Control
Serum ACE activity ([1]; 1.5 h, Rabbit 1): 14% of Control
Serum ACE activity ([1]; 1.5 h, Rabbit 2): 55% of Control
Serum ACE activity ([1]; 2.0 h, Rabbit 1): 11% of Control
Serum ACE activity ([1]; 2.0 h, Rabbit 2): 44% of Control
Serum ACE activity ([1]; 2.5 h, Rabbit 1): 12% of Control
Serum ACE activity ([1]; 2.5 h, Rabbit 2): 40% of Control
Serum ACE activity ([1]; 3.0 h, Rabbit 1): 30% of Control
Serum ACE activity ([1]; 4.0 h, Rabbit 1): 23% of Control
Serum ACE activity ([1]; 5.0 h, Rabbit 1): 19% of Control
Serum ACE activity ([1]; 20.0 h, Rabbit 1): 70% of Control
IC50 [2]: 0.04 µM and 0.01 µM
resistance to alkaline hydrolysis [3]: surprisingly resistant to alkaline hydrolysis
hydrolysis at pH 9.5 in 1M NaHCO3 ([3]; pH 9.5, 1M NaHCO3): not hydrolyzed
